# Measured values taken from ChEMBL document CHEMBL2440076, “New triarylpyrazoles as broad-spectrum anticancer agents: design, synthesis, and biological evaluation” (Eur J Med Chem, 2013).
# Tests used:
# Type in all cases: functional
# MDA-MB-468 [1] = assay: Growth inhibition of human MDA-MB-468 cells assessed as cell growth at 10 uM after 48 hrs by sulforhodamine B assay; details: MDA-MB-468, 48 h, read-out: Activity
# HCT-15 = assay: Growth inhibition of human HCT15 cells assessed as cell growth at 5X10'-5 M after 48 hrs by sulforhodamine B assay; details: HCT-15, 48 h, read-out: Activity
# [2] = Growth inhibition of human NCI-ADR-RES cells assessed as cell growth at 5X10'-5 M after 48 hrs by sulforhodamine B assay; details: read-out: Activity
# CAKI-1 [3] = assay: Growth inhibition of human CAKI-1 cells assessed as cell growth at 5X10'-6 M after 48 hrs by sulforhodamine B assay; details: CAKI-1, 48 h, read-out: Activity
# MCF7 = assay: Growth inhibition of human MCF7 cells assessed as cell growth at 5X10'-6 M after 48 hrs by sulforhodamine B assay; details: MCF7, 48 h, read-out: Activity
# SK-MEL-2 [4] = assay: Growth inhibition of human SK-MEL-2 cells after 48 hrs by sulforhodamine B assay; details: SK-MEL-2, 48 h
# LOX IMVI = assay: Growth inhibition of human LOXIMVI cells assessed as cell growth at 5X10'-7 M after 48 hrs by sulforhodamine B assay; details: read-out: Activity
# M14 = assay: Growth inhibition of human M14 cells after 48 hrs by sulforhodamine B assay; details: M14, 48 h
# SF-295 = assay: Growth inhibition of human SF295 cells assessed as cell growth at 5X10'-6 M after 48 hrs by sulforhodamine B assay; details: SF-295, 48 h, read-out: Activity
# TK-10 = assay: Growth inhibition of human TK10 cells after 48 hrs by sulforhodamine B assay; details: TK-10, 48 h; for CC50: read-out: LC50 (the source's name)
# UACC-62 = assay: Growth inhibition of human UACC62 cells after 48 hrs by sulforhodamine B assay; details: UACC-62, 48 h
# K562 = assay: Growth inhibition of human K562 cells assessed as cell growth at 5X10'-7 M after 48 hrs by sulforhodamine B assay; details: K562, 48 h, read-out: Activity
# SNB-75 [5] = assay: Growth inhibition of human SNB75 cells after 48 hrs by sulforhodamine B assay; details: SNB-75, 48 h
# T47D [6] = assay: Growth inhibition of human T47D cells assessed as cell growth at 5X10'-8 M after 48 hrs by sulforhodamine B assay; details: read-out: Activity
# RPMI-8226 = assay: Growth inhibition of human RPMI8226 cells assessed as cell growth at 5X10'-7 M after 48 hrs by sulforhodamine B assay; details: RPMI-8226, 48 h, read-out: Activity
# SNB-19 = assay: Growth inhibition of human SNB19 cells after 48 hrs by sulforhodamine B assay; details: SNB-19, 48 h
# SK-MEL-28 = assay: Growth inhibition of human SK-MEL-28 cells assessed as cell growth at 5X10'-9 M after 48 hrs by sulforhodamine B assay; details: SK-MEL-28, 48 h, read-out: Activity
# SF-268 [7] = assay: Growth inhibition of human SF268 cells assessed as cell growth at 5X10'-9 M after 48 hrs by sulforhodamine B assay; details: SF-268, 48 h, read-out: Activity
# HOP-62 = assay: Growth inhibition of human HOP62 cells assessed as cell growth at 5X10'-8 M after 48 hrs by sulforhodamine B assay; details: HOP-62, 48 h, read-out: Activity
# HT-29 = assay: Growth inhibition of human HT-29 cells assessed as cell growth at 5X10'-8 M after 48 hrs by sulforhodamine B assay; details: HT-29, 48 h, read-out: Activity
# CAKI-1 [8] = assay: Growth inhibition of human CAKI-1 cells assessed as cell growth at 5X10'-9 M after 48 hrs by sulforhodamine B assay; details: CAKI-1, 48 h, read-out: Activity
# HOP-92 = assay: Growth inhibition of human HOP92 cells assessed as cell growth at 5X10'-7 M after 48 hrs by sulforhodamine B assay; details: HOP-92, 48 h, read-out: Activity
# UO-31 = assay: Growth inhibition of human UO31 cells assessed as cell growth at 5X10'-5 M after 48 hrs by sulforhodamine B assay; details: UO-31, 48 h, read-out: Activity
# BT-549 = assay: Growth inhibition of human BT549 cells after 48 hrs by sulforhodamine B assay; details: BT-549, 48 h
# T47D [9] = assay: Growth inhibition of human T47D cells assessed as cell growth at 5X10'-7 M after 48 hrs by sulforhodamine B assay; details: read-out: Activity
# SF-539 = assay: Growth inhibition of human SF539 cells after 48 hrs by sulforhodamine B assay; details: SF-539, 48 h
# SF-268 [10] = assay: Growth inhibition of human SF268 cells assessed as cell growth at 10 uM after 48 hrs by sulforhodamine B assay; details: SF-268, 48 h, read-out: Activity
# SNB-75 [11] = assay: Growth inhibition of human SNB75 cells assessed as cell growth at 5X10'-7 M after 48 hrs by sulforhodamine B assay; details: SNB-75, 48 h, read-out: Activity
# T47D [12] = assay: Growth inhibition of human T47D cells assessed as cell growth at 5X10'-5 M after 48 hrs by sulforhodamine B assay; details: read-out: Activity
# PC-3 = assay: Growth inhibition of human PC3 cells assessed as cell growth at 5X10'-9 M after 48 hrs by sulforhodamine B assay; details: PC-3, 48 h, read-out: Activity
# COLO 205 = assay: Growth inhibition of human COLO205 cells assessed as cell growth at 5X10'-7 M after 48 hrs by sulforhodamine B assay; details: COLO 205, 48 h, read-out: Activity
# SK-MEL-2 [13] = assay: Growth inhibition of human SK-MEL-2 cells assessed as cell growth at 10 uM after 48 hrs by sulforhodamine B assay; details: SK-MEL-2, 48 h, read-out: Activity
# Malme-3M = assay: Growth inhibition of human MALME-3M cells assessed as cell growth at 5X10'-8 M after 48 hrs by sulforhodamine B assay; details: read-out: Activity
# MDA-MB-468 [14] = assay: Growth inhibition of human MDA-MB-468 cells assessed as cell growth at 5X10'-9 M after 48 hrs by sulforhodamine B assay; details: MDA-MB-468, 48 h, read-out: Activity
# OVCAR-5 = assay: Growth inhibition of human OVCAR5 cells assessed as cell growth at 10 uM after 48 hrs by sulforhodamine B assay; details: OVCAR-5, 48 h, read-out: Activity
# ACHN = assay: Growth inhibition of human ACHN cells assessed as cell growth at 5X10'-7 M after 48 hrs by sulforhodamine B assay; details: read-out: Activity
structure (smiles),measurement,setting,value
COc1cc(-c2nn(-c3cccc(NC(=O)Nc4cc(C(F)(F)F)cc(C(F)(F)F)c4)c3)cc2-c2ccncc2)ccc1Cl,growth at 10 µM,MDA-MB-468 [1],-25.4%
same,growth at 50 µM,HCT-15,-75%
same,growth at 50 µM,[2],-16%
same,growth at 5 µM,CAKI-1 [3],-20%
same,growth at 5 µM,MCF7,2%
same,GI50,SK-MEL-2 [4],1020 nM
same,LC50 (50% lethal concentration),SK-MEL-2 [4],3710 nM
same,TGI,SK-MEL-2 [4],1950 nM
same,growth at 0.5 µM,LOX IMVI,84%
same,GI50,M14,808 nM
same,LC50 (concentration killing 50% of cells),M14,> 50000 nM
same,TGI,M14,2550 nM
same,growth at 5 µM,SF-295,-71%
same,GI50,TK-10,894 nM
same,TGI,TK-10,2480 nM
same,CC50,TK-10,10100 nM
same,GI50,UACC-62,661 nM
same,LC50 (50% lethal concentration),UACC-62,3780 nM
same,TGI,UACC-62,1580 nM
same,growth at 0.5 µM,K562,42%
same,GI50,SNB-75 [5],858 nM
same,"LC50 (lethal concentration, 50% net cell kill)",SNB-75 [5],5310 nM
same,TGI,SNB-75 [5],2070 nM
same,growth at 0.05 µM,T47D [6],104%
same,growth at 0.5 µM,RPMI-8226,38%
same,GI50,SNB-19,711 nM
same,LC50 (concentration killing 50% of cells),SNB-19,> 50000 nM
same,TGI,SNB-19,3670 nM
same,growth at 0.005 µM,SK-MEL-28,101%
same,growth at 0.005 µM,SF-268 [7],100%
same,growth at 0.05 µM,HOP-62,95%
same,growth at 0.05 µM,HT-29,108%
same,growth at 0.005 µM,CAKI-1 [8],95%
same,growth at 0.5 µM,HOP-92,30%
same,growth at 50 µM,UO-31,-93%
same,GI50,BT-549,1210 nM
same,LC50 (50% lethal concentration),BT-549,29600 nM
same,TGI,BT-549,3060 nM
same,growth at 0.5 µM,T47D [9],89%
same,GI50,SF-539,829 nM
same,LC50 (concentration killing 50% of cells),SF-539,3540 nM
same,TGI,SF-539,1710 nM
same,growth at 10 µM,SF-268 [10],-46.3%
same,growth at 0.5 µM,SNB-75 [11],81%
same,growth at 50 µM,T47D [12],5%
same,growth at 0.005 µM,PC-3,92%
same,growth at 0.5 µM,COLO 205,93%
same,growth at 10 µM,SK-MEL-2 [13],-52.1%
same,growth at 0.05 µM,Malme-3M,104%
same,growth at 0.005 µM,MDA-MB-468 [14],90%
same,growth at 10 µM,OVCAR-5,16.3%
same,growth at 0.5 µM,ACHN,50%
COc1cc(-c2nn(-c3cccc(NC(=O)Nc4ccc(Cl)c(Cl)c4)c3)cc2-c2ccncc2)ccc1Cl,growth at 10 µM,MDA-MB-468 [1],2.14%
same,growth at 50 µM,HCT-15,5%
same,growth at 50 µM,[2],-9%
same,growth at 5 µM,CAKI-1 [3],-13%
same,growth at 5 µM,MCF7,2%
same,GI50,SK-MEL-2 [4],1140 nM
same,LC50 (50% lethal concentration),SK-MEL-2 [4],4850 nM
same,TGI,SK-MEL-2 [4],2350 nM
same,growth at 0.5 µM,LOX IMVI,82%
same,GI50,M14,911 nM
same,LC50 (concentration killing 50% of cells),M14,41200 nM
same,TGI,M14,2690 nM
same,growth at 5 µM,SF-295,-26%
same,GI50,TK-10,1430 nM
same,TGI,TK-10,40900 nM
same,CC50,TK-10,> 50000 nM
same,GI50,UACC-62,773 nM
same,LC50 (50% lethal concentration),UACC-62,4490 nM
same,TGI,UACC-62,1860 nM
same,growth at 0.5 µM,K562,65%
same,GI50,SNB-75 [5],1050 nM
same,"LC50 (lethal concentration, 50% net cell kill)",SNB-75 [5],> 50000 nM
same,TGI,SNB-75 [5],5170 nM
same,growth at 0.05 µM,T47D [6],101%
same,growth at 0.5 µM,RPMI-8226,45%
same,GI50,SNB-19,1720 nM
same,LC50 (concentration killing 50% of cells),SNB-19,> 50000 nM
same,TGI,SNB-19,> 50000 nM
same,growth at 0.005 µM,SK-MEL-28,106%
same,growth at 0.005 µM,SF-268 [7],100%
same,growth at 0.05 µM,HOP-62,97%
same,growth at 0.05 µM,HT-29,102%
same,growth at 0.005 µM,CAKI-1 [8],97%
same,growth at 0.5 µM,HOP-92,35%
same,growth at 50 µM,UO-31,-11%
same,GI50,BT-549,1680 nM
same,LC50 (50% lethal concentration),BT-549,> 50000 nM
same,TGI,BT-549,27600 nM
same,growth at 0.5 µM,T47D [9],84%
same,GI50,SF-539,965 nM
same,LC50 (concentration killing 50% of cells),SF-539,> 50000 nM
same,TGI,SF-539,3080 nM
same,growth at 10 µM,SF-268 [10],17.9%
same,growth at 0.5 µM,SNB-75 [11],74%
same,growth at 50 µM,T47D [12],9%
same,growth at 0.005 µM,PC-3,99%
same,growth at 0.5 µM,COLO 205,102%
same,growth at 10 µM,SK-MEL-2 [13],-44.2%
same,growth at 0.05 µM,Malme-3M,109%
same,growth at 0.005 µM,MDA-MB-468 [14],94%
same,growth at 10 µM,OVCAR-5,38%
same,growth at 0.5 µM,ACHN,70%
